Assay results published in the supplement of paper PMC11451515.

System: SEM cells
Assay: cell viability relative to DMSO control; higher = less cytotoxic
Conditions: 48 h
Outline: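 Three leukemia lines were tested: NOMO1 and SEM at 500 cells/well and P12-Ichikawa at 1000 cells/well. Each was adapted for at least four passages in each medium and seeded in 5 μl in 1536-well plates, and library compounds in DMSO were pin-dosed from 47 μM to 0.79 nM in 11 threefold steps. After 48 h at 37°C, CellTiter-Glo One luminescence was read. Viability is a percentage relative to DMSO wells on each plate, with cell-free wells as background.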

[1] = HPLM + 10% dialyzed FBS, 0.000781 µM
[2] = HPLM + 10% dialyzed FBS, 0.00234 µM
[3] = HPLM + 10% dialyzed FBS, 0.00702 µM
[4] = HPLM + 10% dialyzed FBS, 0.0211 µM
[5] = HPLM + 10% dialyzed FBS, 0.0632 µM
[6] = HPLM + 10% dialyzed FBS, 0.19 µM
[7] = HPLM + 10% dialyzed FBS, 0.569 µM
[8] = HPLM + 10% dialyzed FBS, 1.71 µM
[9] = HPLM + 10% dialyzed FBS, 5.12 µM
[10] = HPLM + 10% dialyzed FBS, 15.4 µM
[11] = HPLM + 10% dialyzed FBS, 46.1 µM
[12] = RPMI 5 mM glucose + 10% FBS, 0.000781 µM
[13] = RPMI 5 mM glucose + 10% FBS, 0.00234 µM
[14] = RPMI 5 mM glucose + 10% FBS, 0.00702 µM
[15] = RPMI 5 mM glucose + 10% FBS, 0.0211 µM
[16] = RPMI 5 mM glucose + 10% FBS, 0.0632 µM
[17] = RPMI 5 mM glucose + 10% FBS, 0.19 µM
[18] = RPMI 5 mM glucose + 10% FBS, 0.569 µM
[19] = RPMI 5 mM glucose + 10% FBS, 1.71 µM
[20] = RPMI 5 mM glucose + 10% FBS, 5.12 µM
[21] = RPMI 5 mM glucose + 10% FBS, 15.4 µM
[22] = RPMI 5 mM glucose + 10% FBS, 46.1 µM
[23] = RPMI 5 mM glucose + 10% dialyzed FBS, 0.000781 µM
[24] = RPMI 5 mM glucose + 10% dialyzed FBS, 0.00234 µM
[25] = RPMI 5 mM glucose + 10% dialyzed FBS, 0.00702 µM
[26] = RPMI 5 mM glucose + 10% dialyzed FBS, 0.0211 µM
[27] = RPMI 5 mM glucose + 10% dialyzed FBS, 0.0632 µM
[28] = RPMI 5 mM glucose + 10% dialyzed FBS, 0.19 µM
[29] = RPMI 5 mM glucose + 10% dialyzed FBS, 0.569 µM
[30] = RPMI 5 mM glucose + 10% dialyzed FBS, 1.71 µM
[31] = RPMI 5 mM glucose + 10% dialyzed FBS, 5.12 µM
[32] = RPMI 5 mM glucose + 10% dialyzed FBS, 15.4 µM
[33] = RPMI 5 mM glucose + 10% dialyzed FBS, 46.1 µM

SMILES	cell viability [1] [%]	cell viability [2] [%]	cell viability [3] [%]	cell viability [4] [%]	cell viability [5] [%]	cell viability [6] [%]	cell viability [7] [%]	cell viability [8] [%]	cell viability [9] [%]	cell viability [10] [%]	cell viability [11] [%]	cell viability [12] [%]	cell viability [13] [%]	cell viability [14] [%]	cell viability [15] [%]	cell viability [16] [%]	cell viability [17] [%]	cell viability [18] [%]	cell viability [19] [%]	cell viability [20] [%]	cell viability [21] [%]	cell viability [22] [%]	cell viability [23] [%]	cell viability [24] [%]	cell viability [25] [%]	cell viability [26] [%]	cell viability [27] [%]	cell viability [28] [%]	cell viability [29] [%]	cell viability [30] [%]	cell viability [31] [%]	cell viability [32] [%]	cell viability [33] [%]
Cc1cc(SCc2sc(-c3ccc(C(F)(F)F)cc3)nc2C)ccc1OCC(=O)O	98.4	102	98.3	113	102	109	113	105	99.3	48.9	98.4	94.3	101	89.4	102	102	105	100	104	114	57.5	93.5	99.9	101	96.1	97	109	92.5	102	109	99.4	48.3	97.9
CCc1c(O)cc(O)c(C(=O)c2ccc(OCCN3CCOCC3)c(OC)c2)c1CC(=O)N(CCOC)CCOC	115	124	118	120	116	116	111	103	47.3	25.5	17	122	116	153	121	143	117	81.9	91.3	40.8	20.8	19	115	103	111	106	108	105	86.5	68.1	32.9	24.1	15
FC(F)(F)C1=CC=C2C(SCCCCCO\C3=C\O\C(CN4CCOCC4)=C/C3=O)=CC=NC2=C1	92.4	106	107	106	108	115	111	119	112	106	96.2	66.6	74.4	69	67.2	63.7	72.9	77.8	65.4	66.1	69.4	61.9	112	113	104	110	102	112	115	110	99	102	85.7
COc1cc(NC(=O)c2ccc(-c3ccc(Cl)cc3)o2)cc(OC)c1	73	94.6	93.6	106	98.5	114	116	107	107	94.3	107	77.7	90	103	104	107	96.8	94.2	86.4	102	105	98.9	81.2	96.2	95.9	102	105	95.4	96.4	89.7	99.8	109	90.1
COC1=CC(=CC=C1)C2=CC=C(NC(=O)/C3=C(/CCC3)C(O)=O)C(=C2)F	103	109	116	108	122	108	119	107	104	104	76.6	92.5	108	112	116	127	120	121	118	107	111	42.8	95.6	115	109	113	103	109	105	111	111	78.2	30.9
CNC(=O)c1ccc(N2C(=S)N(c3ccc(C#N)c(C(F)(F)F)c3)C(=O)C2(C)C)cc1F	87.9	96.9	42.8	113	105	113	112	109	117	121	105	71.3	74	9.73	74.8	73.9	81.9	86.3	72.2	90.1	76.1	64.1	87.7	99.6	31.2	116	109	111	104	110	104	110	87.9
O=C([O-])[C@H](CC(=O)N1C[C@H]2CCCC[C@H]2C1)Cc1ccccc1	79.8	91.7	88.2	72.7	107	109	103	106	119	125	121	93.8	110	105	87.7	102	108	106	112	117	128	119	85.1	103	107	65.5	95.7	117	115	105	129	137	140
COC(=O)Nc1ccc(-c2nc(N3CCOCC3)c3cnn(C4CCN(Cc5cccnc5)CC4)c3n2)cc1	86.4	98	99	92.5	93.5	57.9	46.6	50.9	21.4	10.6	7.36	119	98	85.5	99.9	75.4	54.2	33.3	35.9	4.31	2.26	3.9	125	128	112	105	89.9	67.8	43.7	40.3	6.29	3.11	4.53
